Test results taken from patent US9056105B2, “Method for treatment of bone diseases and fractures” (INDIANA UNIVERSITY RESEARCH AND TECHNOLOGY CORPORATION, priority 2008, dated 2015).

Assays:
[1] = test system: ATF4, ATF3, CHOP, Runx2, Osterix, Rank 1, Osteocalcin mRNA; assay: mRNA expression levels by real-time PCR in MC3T3 cells; type: cell-based, mouse
Description: Responses to Administration of Thapsigargin—Upregulation of transcription factors linked to bone formation as well as PERK: The effects of 10 nM thapsigargin on mRNA expression levels of ISR-linked genes (ATF4, ATF3, and CHOP) as well as genes involved in bone remodeling (Runx2, Osterix, and Rank 1), were examined (FIG. 7). […] Out of 4 transcription factors (ATF4, ATF3, Runx2, and Osterix), the level of ATF4 mRNA was elevated 2-4 fold throughout the treatments. […] The mRNA level of type 1 collagen was elevated 5 h and 10 h for T1h (1 h exposure at 10 nM).
(§1) Responses to Administration of Salubrinal—In vitro responses to salubrinal: In order to evaluate the effects of salubrinal, MC3T3 E1 osteoblast-like cells and MLO-A5 osteocyte cells (Barragan-Adjemian, C., et al., “Mechanism by which MLO-A5 late osteoblasts/early osteocytes mineralize in culture: similarities with mineralization of lamellar bone,” Calcif. Tissue Int. 79:340-353 (2006)) were incubated with salubrinal at 100 nM-50 μM for 1-24 h. The mRNA levels of the selected genes, TF4, ATF3, Osteocalcin (OCN), and CHOP, were determined by real-time PCR. […] In MC3T3 cells, for instance, the Osteocalcin mRNA level, which is regulated by ATF4 and Runx2 (Xiao et al. 2005), was elevated 11.8±0.2 fold at 10 μM salubrinal in 24 h.

MC3T3 cells [2] = assay: Microarray analysis (GSEA, IPA) of thapsigargin-induced mild ER stress; type: cell-based, mouse; conditions: 1 h exposure at 10 nM
Description: Responses to Administration of Thapsigargin—Linkage to hypoxia through microarray analysis: In response to thapsigargin-induced mild ER stress (1 h exposure at 10 nM), microarray experiments were conducted. First, Gene Set Enrichment Analysis (GSEA; Broad Institute) was used to identify a group of genes that shared common biological functions (Hamamura, K., et al., “Microarray analysis of thapsigargin-induced stress to the endoplasmic reticulum of mouse osteoblasts,” J. Bone Miner. Metab. 26:231-240 (2008)). For each group of gene sets, GSEA calculates an enrichment score and evaluates statistical significance in the enrichment score. […] The highest normalized enrichment score was given to the gene set, HYPOXIA_UP. All genes present in the array were reordered based on a ranked list-metric value (a mean expression ratio between the thapsigargin-treated and untreated samples), and the best enrichment score of “−0.66” was assigned. Note that if the expression ratio is random among the genes in HYPOXIA_UP, the expected enrichment score is ±0.23. The enrichment score, ranked […] and P (enrichment score) supported the conclusions drawn from the software program output. […]

[3] = test system: PERK, PKR, p-38 MAPK, ERK1/2; assay: Phosphorylation of eIF2α kinases and MAP kinases; type: cell-based, mouse; conditions: 10 nM, 1 h exposure
Description: In response to T1h (1 h exposure at 10 nM), the level of phosphorylation of two eIF2α kinases (PERK and PKR), and two MAP kinases (p-38 MAPK and ERK1/2) was examined (FIG. 8).

MC3T3 cells [4] = type: cell-based, mouse
[5] = test system: eIF2α-p and ATF4 proteins; assay: Western blot of eIF2α-p and ATF4 proteins in MC3T3 E1 osteoblast-like cells; type: cell-based, mouse
Description: (§2) At higher doses of 10 and 100 nM, the levels of eIF2α-p and ATF4 proteins were elevated (FIG. 5A). Thapsigarin is known to induce apoptosis when administered above a threshold concentration.
MS3T3 osteoblast-like cells were used to evaluate the level of eIF2α-p (phosphorylated form of eukaryotic initiation factor 2—subunit α) in response to salubrinal.

[6] = test system: CHOP, pro-caspase 3, cleaved caspase 3; assay: Protein levels of CHOP, pro-caspase 3 and cleaved caspase 3 (induction of apoptosis); type: cell-based, mouse; conditions: 10 nM
Description: as §2

MLO-A5 osteocyte cells = assay: mRNA levels by real-time PCR in MLO-A5 osteocyte cells; type: cell-based; conditions: 100 nM-50 μM, 1-24 h
Description: as §1

rat brain = conditions: intra-cerebroventricular or intra-peritoneal administration; cited from earlier work
femora of C57BL/6 mice = assay: Intramedullary injection into mouse femur, BMD and BMC; type: in vivo
Description: Responses to Administration of Salubrinal—In Vivo Responses to salubrinal: In order to evaluate the effects of salubrinal in vivo, salubrinal was injected into an intramedullary cavity of the left femora of C57BL/6 mice and alterations in bone mineral density (BMD) and bone mineral content (BMC) were determined. There were 9 salubrinal treated mice as well as 9 placebo mice (injection of PBS). All mice received 4 injections of either salubrinal or PBS in the left femur, while the right femur was used as contralateral control. In four consecutive injections with a 0.5-inch #26-gauge needle and a Hamilton micro-syringe, the laterial side was used on the 1st and 3rd injections and the medial side on the 2nd and 4th injections. An injection volume was 20 μl for salubrinal or PBS, and the salubrinal concentration was 50 μM. […] At the time of harvest (2 wks after the 1st injection), an increase in body weight in Salubrinal group (0.80±0.13 g) was higher than that in Placebo group (0.28±0.15 g; p<0.05). Harvested bone samples were analyzed with PIXImus (version 1.4, GE Medical System Lunar) for determination of BMD and BMC.

mouse tibia = assay: Mouse tibia bone formation, ankle loading plus local salubrinal; type: in vivo; conditions: 0.025 mg/kg (100 μM) salubrinal plus ankle loading, 5 days
Description: Mouse tibia-bone formation: Twenty C57/BL/6 Female Mice (˜8 weeks, body weight˜18 g) were employed to examine the combined effects of ankle loading and local administration of salubrinal to the tibia (Zhang P, et al., Salubrinal stimulates anabolic responses in mouse femora, 55th Ann Meeting ORS (2009)). Local administration was targeted into a bone marrow cavity from the proximal tibia. A total volume of 20 μl PBS was injected to the left hindlimb with or without 0.025 mg/kg (100 μM) salubrinal (Calbiochem) using a micro-syringe with a 0.5-inch #26-gauge needle (Worsham D N, et al., In vivo gene transfer into adult stem cells in unconditioned mice by in situ delivery of a lentiviral vector, Mol. Ther. 14:514-24 (2006); Zhu Y, et al., eIF-2α protects brainstem motoneurons in a murine model of sleep apnea, J. Neurosci. 28:2168-78 (2008)). In examination of the combined effects of mechanical loading and salubrinal administration, ankle loading was given for 5 consecutive days after administration of salubrinal on each day. The mouse was placed in an anesthetic induction chamber to cause sedation and then mask-anesthetized using 1.5% isoflurane. With a custom-made piezoelectric mechanical loader, loads were applied to the left ankle for 5 min/day in the lateral-medial direction. The loading frequency was 5 Hz, and the peak-to-peak force was 0.5 N (FIG. 15). […]

brainstem motoneurons = conditions: hypoxia and reoxygenation events; cited from earlier work
rat femur = assay: Rat femur healing of surgical wounds, micro CT; type: in vivo; conditions: for increase in cortical thickness vs control: anterior hole; for reduction in wound size vs control: anterior holes; for increase in cortical thickness: posterior hole
Description: Rat femur—healing of surgical wounds. A surgical hole with ˜2.0 mm in diameter was generated in the left and right femurs of twenty female SD rats (˜8 weeks, body weight ˜180 g). The holes were drilled through the femur from the anterior surface to the opposite cortex (posterior surface) in the middle of the femur. During the first 5 days, 100 μl of salubrinal solution at dosage of 0.025 mg/kg was injected subcutaneously to the left limb and a PBS solution (vehicle control) in the right limb. The injection site was closed to the anterior surgical hole. Rats were sacrificed on days 10 or 20 after surgery, and the axial and transverse hole sizes as well as cortical thickness (1.5 mm proximal and distal to the center of the hole) were determined with micro CT. […] Regarding the anterior holes, the size of the wounds 10 days after surgery was smaller in the salubrinal treated group by 10.8% (1.905±0.018 mm in control and 1.700±0.021 mm in salubrinal; p<0.001). The size in 20 day samples was further decreased by 18.0% (1.812±0.017 mm in control and 1.486±0.026 mm in salubrinal; p<0.001). […] Note that the reduction in the wound size on day 20 was more significant than those on day 10 in both the anterior and posterior holes (both p<0.001) (FIG. 20B).

rat β-cells = conditions: 5-75 μM, dosage dependent; cited from earlier work
rat tibia = assay: Rat tibia healing of surgical wounds, micro CT; type: in vivo; conditions: for reduction in wound size vs control: medial cortex
Description: Rat tibia—healing of surgical wounds. Twenty female SD rats (˜8 weeks, body weight˜180 g) received a surgical hole with ˜2.0 mm in diameter in the left and right tibiae (Zhang P., et al., Knee loading accelerates bone healing in mice, J. Bone Miner. Res. 22:1979-1987 (2007)). The hole was located on the medial surface ˜15 mm distant apart from the proximal end of the tibia (Chiba S., et al., Molecular analysis of defect healing in rat diaphyseal bone, J. Vet. Med. Sci. 63:603-606 (2001)). During the first 5 days, 100 μl of salubrinal solution at dosage of 0.025 mg/kg was injected into the left limb and a PBS solution (vehicle control) in the right limb (Wang J W, et al., Locally applied simvastatin promotes fracture healing in ovariectomized rat, Osteoporosis Int. 18:1641-1650 (2007)). Injection was subcutaneous targeted to the wound site. Rats were sacrificed on days 10 or 20 after surgery, and the axial and transverse length of the holes as well as cortical thickness (1.5 mm proximal and distal to the center of the hole) were determined with micro CT imaging (μCT-20, Scanco Medical AG) (FIG. 16).

[7] = 10 days after surgery, 0.025 mg/kg

C/C=C(/C)C(=O)O[C@H]1C(C)=C2[C@H]([C@@H]1OC(=O)CCCCCCC)[C@@](C)(OC(C)=O)C[C@H](OC(=O)CCC)[C@@]1(O)[C@H]2OC(=O)[C@@]1(C)O [thapsigargin]
increase in Runx2 mRNA ([1]; 10 nM): started at 3 h and peaked at 5 h | mRNA level of CHOP ([1]; 10 nM): 10-35 fold | mRNA level of type 1 collagen ([1]; 10 nM, 1 h exposure, 5 h and 10 h): elevated | Rank 1 mRNA ([1]; 10 nM, 3 h for T2h and 10 h for T3h): significantly up | level of Osteocalcin mRNA ([1]; 1-100 nM for 1-24 h): did not increase | core enrichment genes in HYPOXIA_UP vs control (MC3T3 cells [2]): significantly upregulated | level of p-ERK1/2 [3]: not altered | level of p-PERK [3]: elevated | level of p-PKR [3]: not altered | level of p-p38 MAPK [3]: elevated | numbers of live and dead cells (MC3T3 cells [4]; 10 nM, 1 h incubation): does not alter | cell number or mortality vs control cells (MC3T3 cells [4]; 1 h exposure at 10 nM): no significant difference | levels of eIF2α-p and ATF4 proteins ([5]; 10 and 100 nM): elevated | eIF2α-p and ATF4 protein expression ([5]; dosages below 0.1 nM): no detectable upregulation | level of active (cleaved) caspase 3 [6]: increased after 24 h | level of CHOP protein ([6]; higher for 5, 10 and 24 h): started to increase after 3 h

O=C(/C=C/c1ccccc1)NC(NC(=S)Nc1cccc2cccnc12)C(Cl)(Cl)Cl (stereo not drawn) [salubrinal]
mRNA levels of ATF4, ATF3, Osteocalcin and CHOP (MLO-A5 osteocyte cells): did not show any significant alterations | excitotoxic neuronal death in vivo (rat brain): decreased excitotoxic neuronal death | mRNA levels of ATF4, ATF3, Osteocalcin and CHOP ([1]; MC3T3 cells, 100 nM-50 μM, 1-24 h): upregulated | BMD of injected femur (femora of C57BL/6 mice; 20 μl 50 μM injection, 4 injections, mean±s.e.m.): 0.0456±0.0011 g/cm^2 | BMD compared to contralateral control (femora of C57BL/6 mice; p=0.02): increased | BMC compared to contralateral control (femora of C57BL/6 mice; p=0.09): showed a trend to elevate | tibia BMC (mouse tibia): 0.0154 ± 0.0004 g | tibia BMD (mouse tibia): 0.0443±0.0011 g/cm^2 | motoneuronal injury (brainstem motoneurons): suppressed motoneuronal injury | increase in cortical thickness vs control (rat femur; day 10): 11.0% | increase in cortical thickness vs control (rat femur; day 20): 25.7% | reduction in wound size vs control (rat femur; [7]): 10.8% | reduction in wound size vs control (rat femur; 20 days): 18.0% | increase in cortical thickness (rat femur; postoperative 10 days): 13.8% | increase in cortical thickness (rat femur; postoperative 20 days): 21.3% | apoptosis (rat β-cells): induced apoptosis | increase in cortical thickness vs control (rat tibia; day 10): 11.6% | increase in cortical thickness vs control (rat tibia; day 20): 20.3% | reduction in wound size vs control (rat tibia; [7]): 12.3% | reduction in wound size vs control (rat tibia; 20 days): 19.1%
